In the supplement of paper PMC10307832:

Columns and labels:
Assay in all cases: relative viability (nuclei count vs DMSO), 5 days (fraction); higher = more cells survive
[1] = system: HCC-78
In short: (§1)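 Relative viability is defined as nuclei in treated wells over nuclei in vehicle wells. Duplicate plates were run and medians reported. Lung cancer cell lines in 1536-well plates were dosed by pin tool one day after seeding, with one drug or with a fixed anchor-drug dose plus five library-drug doses (not always all listed) in √10 steps, and nuclei were counted after 5 days.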

[2] = system: CAL-12T
In short: as §1

[3] = system: HOP-62
In short: as §1

[4] = system: NCI-H1944
In short: as §1

[5] = system: NCI-H2347
In short: as §1

[6] = system: SK-LU-1
In short: as §1

[7] = system: 201T
In short: as §1

[8] = system: BEN
In short: as §1

[9] = system: NCI-H1915
In short: as §1

[10] = system: NCI-H838
In short: as §1

[11] = system: NCI-H1355
In short: as §1

[12] = system: NCI-H650
In short: as §1

[13] = system: NCI-H322M
In short: as §1

[14] = system: NCI-H1793
In short: as §1

[15] = system: NCI-H441
In short: as §1

[16] = system: LCLC-97TM1
In short: as §1

[17] = system: LOU-NH91
In short: as §1

[18] = system: NCI-H2126
In short: as §1

[19] = system: NCI-H3122
In short: as §1

[20] = system: NCI-H1395
In short: as §1

[21] = system: NCI-H1651
In short: as §1

[22] = system: SW 1573
In short: as §1

Work on `CCNC(=O)c1noc(-c2cc(C(C)C)c(O)cc2O)c1-c1ccc(CN2CCOCC2)cc1` [Luminespib] + O=C(c1cc(Cc2n[nH]c(=O)c3ccccc23)ccc1F)N1CCN(C(=O)C2CC2)CC1 [Olaparib] (partner 8 µM) yielded a relative viability ([1]; first compound 0.002 µM) of 0.773, a relative viability ([1]; first compound 0.006325 µM) of 0.785 and a relative viability ([1]; first compound 0.02 µM) of 0.723. The relative viability ([1]; first compound 0.06325 µM) was 0.643, the relative viability ([1]; first compound 0.2 µM) was 0.32 and the relative viability ([2]; first compound 0.002 µM) was 0.671. The relative viability ([2]; first compound 0.006325 µM) was 0.679, the relative viability ([2]; first compound 0.02 µM) was 0.959 and the relative viability ([2]; first compound 0.06325 µM) was 0.136. It also gave a relative viability ([2]; first compound 0.2 µM) of 0.182, a relative viability ([3]; first compound 0.002 µM) of 0.533 and a relative viability ([3]; first compound 0.006325 µM) of 0.453. It also gave a relative viability ([3]; first compound 0.02 µM) of 0.723, a relative viability ([3]; first compound 0.06325 µM) of 0.0994 and a relative viability ([3]; first compound 0.2 µM) of 0.138. It also gave a relative viability ([4]; first compound 0.002 µM) of 0.445, a relative viability ([4]; first compound 0.006325 µM) of 0.394 and a relative viability ([4]; first compound 0.02 µM) of 0.364. The relative viability ([4]; first compound 0.06325 µM) was 0.418, the relative viability ([4]; first compound 0.2 µM) was 0.33 and the relative viability ([5]; first compound 0.002 µM) was 0.631. It also gave a relative viability ([5]; first compound 0.006325 µM) of 0.617, a relative viability ([5]; first compound 0.02 µM) of 0.7 and a relative viability ([5]; first compound 0.06325 µM) of 0.408. It also gave a relative viability ([5]; first compound 0.2 µM) of 0.296, a relative viability ([6]; first compound 0.002 µM) of 0.538 and a relative viability ([6]; first compound 0.006325 µM) of 0.4. For the same molecule, the relative viability ([6]; first compound 0.02 µM) was 0.475, the relative viability ([6]; first compound 0.06325 µM) was 0.187 and the relative viability ([6]; first compound 0.2 µM) was 0.179. It also gave a relative viability ([7]; first compound 0.002 µM) of 0.883, a relative viability ([7]; first compound 0.006325 µM) of 0.829 and a relative viability ([7]; first compound 0.02 µM) of 0.87. The relative viability ([7]; first compound 0.06325 µM) was 0.803, the relative viability ([7]; first compound 0.2 µM) was 0.784 and the relative viability ([8]; first compound 0.002 µM) was 1.24. The relative viability ([8]; first compound 0.006325 µM) was 0.905, the relative viability ([8]; first compound 0.02 µM) was 0.823 and the relative viability ([8]; first compound 0.06325 µM) was 0.273. For the same molecule, the relative viability ([8]; first compound 0.2 µM) was 0.279, the relative viability ([9]; first compound 0.002 µM) was 0.254 and the relative viability ([9]; first compound 0.006325 µM) was 0.269. It also gave a relative viability ([9]; first compound 0.02 µM) of 0.306, a relative viability ([9]; first compound 0.06325 µM) of 0.148 and a relative viability ([9]; first compound 0.2 µM) of 0.124. The relative viability ([10]; first compound 0.002 µM) was 0.772, the relative viability ([10]; first compound 0.006325 µM) was 0.782 and the relative viability ([10]; first compound 0.02 µM) was 0.723. For the same molecule, the relative viability ([10]; first compound 0.06325 µM) was 0.122, the relative viability ([10]; first compound 0.2 µM) was 0.129 and the relative viability ([11]; first compound 0.002 µM) was 0.757. For the same molecule, the relative viability ([11]; first compound 0.006325 µM) was 0.695, the relative viability ([11]; first compound 0.02 µM) was 0.611 and the relative viability ([11]; first compound 0.06325 µM) was 0.188. It also gave a relative viability ([11]; first compound 0.2 µM) of 0.149, a relative viability ([12]; first compound 0.002 µM) of 0.452 and a relative viability ([12]; first compound 0.006325 µM) of 0.338. It also gave a relative viability ([12]; first compound 0.02 µM) of 0.34, a relative viability ([12]; first compound 0.06325 µM) of 0.061 and a relative viability ([12]; first compound 0.2 µM) of 0.0723. For the same molecule, the relative viability ([13]; first compound 0.002 µM) was 0.799, the relative viability ([13]; first compound 0.006325 µM) was 0.738 and the relative viability ([13]; first compound 0.02 µM) was 0.729. For the same molecule, the relative viability ([13]; first compound 0.06325 µM) was 0.344, the relative viability ([13]; first compound 0.2 µM) was 0.439 and the relative viability ([14]; first compound 0.002 µM) was 0.999. The relative viability ([14]; first compound 0.006325 µM) was 0.975, the relative viability ([14]; first compound 0.02 µM) was 0.7 and the relative viability ([14]; first compound 0.06325 µM) was 0.117. It also gave a relative viability ([14]; first compound 0.2 µM) of 0.167, a relative viability ([15]; first compound 0.002 µM) of 0.524 and a relative viability ([15]; first compound 0.006325 µM) of 0.569. The relative viability ([15]; first compound 0.02 µM) was 0.714, the relative viability ([15]; first compound 0.06325 µM) was 0.119 and the relative viability ([15]; first compound 0.2 µM) was 0.117. It also gave a relative viability ([16]; first compound 0.002 µM) of 0.421, a relative viability ([16]; first compound 0.006325 µM) of 0.5 and a relative viability ([16]; first compound 0.06325 µM) of 0.401. For the same molecule, the relative viability ([16]; first compound 0.2 µM) was 0.257, the relative viability ([17]; first compound 0.002 µM) was 0.967 and the relative viability ([17]; first compound 0.006325 µM) was 0.89. It also gave a relative viability ([17]; first compound 0.02 µM) of 0.445, a relative viability ([17]; first compound 0.06325 µM) of 0.351 and a relative viability ([17]; first compound 0.2 µM) of 0.348. The relative viability ([18]; first compound 0.002 µM) was 0.924, the relative viability ([18]; first compound 0.006325 µM) was 0.887 and the relative viability ([18]; first compound 0.06325 µM) was 0.899. The relative viability ([18]; first compound 0.2 µM) was 0.903, the relative viability ([19]; first compound 0.002 µM) was 0.626 and the relative viability ([19]; first compound 0.006325 µM) was 0.567. For the same molecule, the relative viability ([19]; first compound 0.02 µM) was 0.68, the relative viability ([19]; first compound 0.06325 µM) was 0.56 and the relative viability ([19]; first compound 0.2 µM) was 0.646. The relative viability ([20]; first compound 0.002 µM) was 0.465, the relative viability ([20]; first compound 0.006325 µM) was 0.454 and the relative viability ([20]; first compound 0.02 µM) was 0.427. It also gave a relative viability ([20]; first compound 0.06325 µM) of 0.403, a relative viability ([20]; first compound 0.2 µM) of 0.383 and a relative viability ([21]; first compound 0.002 µM) of 0.195. The relative viability ([21]; first compound 0.006325 µM) was 0.177, the relative viability ([21]; first compound 0.02 µM) was 0.251 and the relative viability ([21]; first compound 0.06325 µM) was 0.181. The relative viability ([21]; first compound 0.2 µM) was 0.165, the relative viability ([22]; first compound 0.002 µM) was 0.445 and the relative viability ([22]; first compound 0.006325 µM) was 0.4. The relative viability ([22]; first compound 0.02 µM) was 0.165, the relative viability ([22]; first compound 0.06325 µM) was 0.101 and the relative viability ([22]; first compound 0.2 µM) was 0.0793.
